One molecule from patent US20240182407A1, “QUINOLINE COMPOUND SALT OR CRYSTAL FORM, PREPARATION METHOD THEREFOR, AND APPLICATION THEREOF” (Nanjing Zenshine Pharmaceuticals Co., Ltd., priority 2021, published 2024) can be followed below.

Structures are written as SMILES. Where two headings read alike, the source gives them in different places.

Series [1] in a line: Solubility in organic solvents. Type of series: physicochemical. The note with it: organic solvent or mixture. An excerpt:
Therefore, these two solvents were taken, for example, as good solvents and subjected to anti-solvent precipitation experiments.

Series [2] in a line: Dynamic water desorption analysis (DVS), hygroscopicity. It counts as physicochemical. How it is done:
The instrument model used for DVS analysis was IGA Sorp (Hidentity Isochema). The sample was measured in a gradient mode, the humidity range for the test was from 0% to 90%, and the humidity increment of each gradient was 10%. The time to keep at each humidity gradient was from 30 min to 2 h.
It was determined by NMR and TGA that the sample had essentially no weight loss and no solvent residue before decomposition.
Sample 3 was taken as an example for dynamic water desorption analysis (DVS) characterization. The instrument model used for DVS analysis was IGA Sorp (Hidentity Isochema). The sample was measured in a gradient mode, the humidity range for the test was from 0% to 90%, and the humidity increment of each gradient was 10%. The time to keep at each humidity gradient was from 30 min to 2 h.

Series [3] deals with T1, PI3Kα (p110α/p85α) (Homo sapiens, UniProt P42336).
T1 construct: purchased Invitrogen PV4788
T1 sequence (P42336 whole entry): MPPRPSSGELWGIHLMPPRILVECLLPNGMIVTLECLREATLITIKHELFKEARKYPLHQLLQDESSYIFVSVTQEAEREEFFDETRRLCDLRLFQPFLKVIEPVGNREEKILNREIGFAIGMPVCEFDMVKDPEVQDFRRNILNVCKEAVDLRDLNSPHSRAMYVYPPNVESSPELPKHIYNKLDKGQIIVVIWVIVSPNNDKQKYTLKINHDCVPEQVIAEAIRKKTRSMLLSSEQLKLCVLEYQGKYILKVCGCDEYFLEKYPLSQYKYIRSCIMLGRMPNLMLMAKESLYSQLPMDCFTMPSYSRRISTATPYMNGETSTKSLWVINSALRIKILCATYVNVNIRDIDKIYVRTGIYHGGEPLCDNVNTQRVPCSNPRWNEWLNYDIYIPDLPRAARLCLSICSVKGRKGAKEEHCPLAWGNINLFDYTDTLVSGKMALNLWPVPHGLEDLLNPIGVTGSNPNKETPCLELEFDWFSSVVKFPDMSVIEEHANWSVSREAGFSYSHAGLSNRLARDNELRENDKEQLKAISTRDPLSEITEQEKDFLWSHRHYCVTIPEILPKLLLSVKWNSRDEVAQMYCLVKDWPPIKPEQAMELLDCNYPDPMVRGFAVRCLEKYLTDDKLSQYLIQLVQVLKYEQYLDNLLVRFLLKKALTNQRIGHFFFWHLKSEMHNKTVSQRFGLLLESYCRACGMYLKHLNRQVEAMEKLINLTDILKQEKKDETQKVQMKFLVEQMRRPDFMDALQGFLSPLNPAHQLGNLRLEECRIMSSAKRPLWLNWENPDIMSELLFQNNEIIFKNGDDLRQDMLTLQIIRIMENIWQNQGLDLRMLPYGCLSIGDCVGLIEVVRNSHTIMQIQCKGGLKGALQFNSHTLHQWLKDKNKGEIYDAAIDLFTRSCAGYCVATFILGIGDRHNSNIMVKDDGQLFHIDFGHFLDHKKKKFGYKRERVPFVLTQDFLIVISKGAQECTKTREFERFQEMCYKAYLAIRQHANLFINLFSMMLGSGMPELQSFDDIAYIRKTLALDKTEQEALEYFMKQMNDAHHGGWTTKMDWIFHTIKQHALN
T1 sequence (P27986 whole entry partner): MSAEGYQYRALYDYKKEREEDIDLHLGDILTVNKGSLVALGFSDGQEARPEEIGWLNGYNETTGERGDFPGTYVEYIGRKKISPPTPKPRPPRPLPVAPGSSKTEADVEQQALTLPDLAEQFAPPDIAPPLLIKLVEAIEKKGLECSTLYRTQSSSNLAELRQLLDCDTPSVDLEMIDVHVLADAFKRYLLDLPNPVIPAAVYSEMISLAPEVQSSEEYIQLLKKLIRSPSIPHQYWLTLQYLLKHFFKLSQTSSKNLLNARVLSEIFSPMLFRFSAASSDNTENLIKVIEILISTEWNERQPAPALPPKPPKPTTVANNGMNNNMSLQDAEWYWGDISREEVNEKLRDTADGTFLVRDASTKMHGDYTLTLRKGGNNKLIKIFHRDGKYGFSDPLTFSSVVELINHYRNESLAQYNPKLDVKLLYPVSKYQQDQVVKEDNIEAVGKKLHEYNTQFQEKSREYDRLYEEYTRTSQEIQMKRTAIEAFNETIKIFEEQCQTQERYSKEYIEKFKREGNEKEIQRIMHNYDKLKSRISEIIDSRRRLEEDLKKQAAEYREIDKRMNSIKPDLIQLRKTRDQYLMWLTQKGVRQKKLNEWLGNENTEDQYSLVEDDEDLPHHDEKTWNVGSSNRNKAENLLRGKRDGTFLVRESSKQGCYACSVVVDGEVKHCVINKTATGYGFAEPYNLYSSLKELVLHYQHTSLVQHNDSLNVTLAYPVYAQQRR
Description: ADP-Glo kinase inhibition, PI3Kα. The note with it: read-out: IC50 PI3Kα Biochemical. How it is done:
(§1) In Example 7, the inhibitory effects of Sample 6 prepared in Example 6 above on kinases PI3Kα, PI3Kβ, PI3Kγ and PI3Kδ were tested.
(§2) The kinases used in the experiment were respectively purchased from: • PI3Kα (p110α/p85α), purchased from Invitrogen, under Cat. No. PV4788; • PI3Kβ (p110β), purchased from eurofins, under Cat. No. 14-603M; • PI3Kδ (p110δ/p85a), purchased from Invitrogen, under Cat. No. PV6452; and • PI3Kγ (p110γ), purchased from Invitrogen, under Cat. No. PR8641C. • Firstly, a 1× kinase buffer solution was prepared, which comprised: • 50 mM HEPES, pH 7.5 • 3 mM MgCl2 • 1 mM EGTA • 100 mM NaCl • 0.03% CHAPS • 2 mM DTT
(§3) On kinases PI3Kα, PI3Kβ and PI3Kγ, the final detection concentration of the compound was 10 μM. 100× concentration was prepared, i.e., 1000 μM. 90 μL of 100% DMSO was added to the second well in row A on a 96-well plate, 10 μL of a 10 mM compound solution was then added, and 3-fold serial dilution was made to obtain a total of 10 concentrations.
(§4) 50 μL of 100% DMSO was transferred to two empty wells as Max well and Min well, respectively.
(§5) 50 nL of the compound was transferred into a 384-well plate using ECHO550.
(§6) Preparation of 2× kinase solution: the kinase was added to a 1× kinase buffer to prepare a 2× enzyme solution. […]
(§7) Finally, the chemiluminescence values were read from Envision 2104 Multi-label Reader and subjected to curve fitting, and IC50 was calculated.
For orientation: In ADP-Glo the light output rises with the ADP produced.

Series [4] deals with WSU-DLCL-2. Description: Proliferation of lymphoma cell line in vitro, WSU-DLCL-2. It counts as cell-based. The note with it: Homo sapiens, WSUDLCL2, read-out: absolute IC50 (AbsIC50), proliferation.
In series [5] the target is PI3Kβ (p110β) (Homo sapiens, UniProt P42338). As to the kind of experiment: ADP-Glo kinase inhibition, PI3Kβ. The note with it: read-out: IC50 PI3Kβ Biochemical. Here is the method:
as §1, §2, §3, §4, §5, §6, §7

Series [6] concerns human-derived lymphoma DoHH-2 cell line. As to the kind of experiment: Human-derived lymphoma DoHH-2 subcutaneous xenograft in CB17/SCID female immunodeficient mice. The note with it: Day 24. Type of series: in vivo, mouse. How it is done: In Example 8, the anti-tumor effects of p-toluenesulfonate of Compound A at various dosages by intragastric administration on human-derived lymphoma DoHH-2 cell line subcutaneous transplantation CB17/SCID female immunodeficient mouse model were evaluated.
7-9-week-old CB17/SCID female immunodeficient mice were subcutaneously inoculated with […] DoHH-2 cells to establish a subcutaneous human lymphoma xenograft tumor model. When the average tumor volume in the mice reached 68 mm^3, the mice were randomly divided into groups and dosed on the day of grouping. The treatment method for each treatment group and vehicle control group was as follows:
p-toluenesulfonate of Compound A (Sample 6), given 100 mg/kg (p.o. QD) group, once daily, for 25 days (days 0-24);
p-toluenesulfonate of Compound A (Sample 6), given 30 mg/kg (p.o. QD) group, once daily, for 25 days (days 0-24);
positive treatment group (Duvelisib, purchased from Shanghai Lollane biological technology Co., Ltd.), given 50 mg/kg (p.o. BID) twice daily with an interval of 12 h, for 24 days; and
vehicle control group (5% DMSO/40% PEG400/55% water, by volume) (p.o. QD), given once daily, for 25 days (days 0-24).
There were 10 mice in each group, and all the mice were administered starting on the day of grouping (Day 0) and euthanized on Day 24 after grouping (Day 24). The efficacy was evaluated according to the tumor volume at the end point of the experiment.
The abbreviation p.o. stood for oral gavage, QD stood for once daily, and BID stood for twice daily.
The relative tumor inhibition rate (TGI) was calculated by the following formula: […]
T and C were respectively the average tumor volumes in the experimental group and the vehicle control group at a specific time point.
In general terms: Xenograft models place foreign cells or tissue in a host animal.

Chain of PI3Kβ (p110β) (P42338 whole entry): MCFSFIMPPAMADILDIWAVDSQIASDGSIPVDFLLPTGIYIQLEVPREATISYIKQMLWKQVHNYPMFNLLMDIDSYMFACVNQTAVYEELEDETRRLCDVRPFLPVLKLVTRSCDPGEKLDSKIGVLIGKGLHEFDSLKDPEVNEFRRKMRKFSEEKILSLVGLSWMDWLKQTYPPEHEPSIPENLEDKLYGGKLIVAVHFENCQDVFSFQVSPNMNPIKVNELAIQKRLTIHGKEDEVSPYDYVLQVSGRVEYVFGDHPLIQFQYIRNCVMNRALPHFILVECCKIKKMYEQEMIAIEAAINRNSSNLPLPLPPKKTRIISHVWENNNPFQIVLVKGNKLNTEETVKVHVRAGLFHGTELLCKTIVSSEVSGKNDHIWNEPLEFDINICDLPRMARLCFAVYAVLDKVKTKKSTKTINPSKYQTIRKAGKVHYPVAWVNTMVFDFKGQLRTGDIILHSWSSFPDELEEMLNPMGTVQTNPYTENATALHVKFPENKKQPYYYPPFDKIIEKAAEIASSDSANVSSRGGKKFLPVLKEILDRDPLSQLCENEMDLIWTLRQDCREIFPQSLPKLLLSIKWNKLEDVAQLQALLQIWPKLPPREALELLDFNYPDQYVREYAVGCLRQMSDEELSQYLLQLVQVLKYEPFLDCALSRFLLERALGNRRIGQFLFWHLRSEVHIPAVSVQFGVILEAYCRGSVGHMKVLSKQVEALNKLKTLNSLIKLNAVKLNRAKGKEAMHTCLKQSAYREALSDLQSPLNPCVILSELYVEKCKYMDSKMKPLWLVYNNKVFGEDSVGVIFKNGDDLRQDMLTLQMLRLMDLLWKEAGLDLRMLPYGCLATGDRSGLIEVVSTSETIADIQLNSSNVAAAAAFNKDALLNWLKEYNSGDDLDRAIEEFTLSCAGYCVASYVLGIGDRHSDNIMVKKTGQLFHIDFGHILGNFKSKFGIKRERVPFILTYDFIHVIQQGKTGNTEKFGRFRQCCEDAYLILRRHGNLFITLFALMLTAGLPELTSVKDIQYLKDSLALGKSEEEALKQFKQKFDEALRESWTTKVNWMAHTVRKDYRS

With `C[C@H](Nc1nc(N)nc(N)c1C#N)c1cc2ccc(F)cc2nc1-c1ccccn1` [p-toluenesulfonate of Compound A], the Solubility in series [1] (methanol, read-out: solubility in methanol) is > 24 mg/mL; in series [1] (tetrahydrofuran, read-out: solubility in tetrahydrofuran) it was > 11.6 mg/mL. For the same molecule, the “crystal form before and after humidity change (XRPD after DVS)” value in series [2] (0% to 90% RH) was “remained unchanged”. In series [2] (at 90% RH), the “moisture absorbed (DVS)” value came to 0.92%. Further, the IC50 was 117 nM in series [3], < 100 nM in series [4] and 44 nM in series [5]. Also, the average tumor volume in series [6] (30 mg/kg p.o. QD) turned out to be 984.45 mm^3; in series [6] (100 mg/kg p.o. QD) it was 549.05 mm^3. For the same molecule, the entries for the “relative tumor inhibition rate (TGI)” value in series [6] (30 mg/kg p.o. QD) and in series [6] (100 mg/kg p.o. QD) were 54% and 75%, respectively.

What is called Solubility is the dissolved amount per volume that the medium holds.
